The results in this text go back to patent US5336673A, “3-substituted cephem compounds” (priority 1990, dated 1994).

Molecules are shown by their SMILES. In brackets after ≈: the same amount, converted by molar mass.

One series concerns Staphyloccus aureus 285. The experiment in a line: Antibacterial activity, MIC by Agar dilution method, standard test strain 5. Conditions: 10^7 CFU/ml, 37° C., 18 hours. The class given is cell-based. Put shortly: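 Two-fold serial dilutions in Mueller Hinton agar (100~0.002 μg/ml final); strains inoculated at 10^7 CFU/ml and incubated 18 hours at 37° C. MIC taken as lowest compound concentration with no growth.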
Background: In agar dilution, organisms are placed on agar that contains the substance at set levels.

The next series concerns Escherichia coli O 55. The experiment in a line: Antibacterial activity, MIC by Agar dilution method, standard test strain 7. Type of series: cell-based. Conditions: Escherichia coli, O55, 18 h. Put shortly:
(§1)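 Two-fold serial dilutions were dispersed in Mueller Hinton agar at 100~0.002 μg/ml final and inoculated with 10^7 CFU/ml test strain. Plates were incubated 18 h at 37° C. MIC taken as the lowest compound concentration with no growth.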

For series [1], the target named is T1, β-lactamase from E. coli TEM (Escherichia coli, UniProt P62593).
T1 construct: directly isolated from Enterobacter cloacae P99, E. coli TEM and Citrobacter freundii; endogenous in cells; host or cells: E. coli TEM (plasmid-carried enzyme of the strain)
T1 sequence (P62593 24-286 limits assumed): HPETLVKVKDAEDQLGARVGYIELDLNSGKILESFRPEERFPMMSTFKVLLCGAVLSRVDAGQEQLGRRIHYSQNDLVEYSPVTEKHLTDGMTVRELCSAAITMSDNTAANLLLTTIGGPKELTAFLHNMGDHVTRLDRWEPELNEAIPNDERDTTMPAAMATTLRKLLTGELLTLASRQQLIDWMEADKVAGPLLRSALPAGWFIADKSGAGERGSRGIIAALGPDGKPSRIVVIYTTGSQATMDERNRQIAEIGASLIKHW
The experiment in a line: Stability against β-lactamase, relative hydrolysis. The class given is biochemical. Conditions: E. coli TEM enzyme; 100 μM; relative(percentage), Cephaloridine taken as 100; OD at 260 nm. As for the experimental part: (§2) In order to establish the usefulness in clinical applications of the compounds provided by the invention, the compound of Example 18 was tested for stability against the β-lactamase and for antibacterial activity on systemic infection model.
(§3) First, the stability against the β-lactamase was tested by determining the relative(percentage) hydrolysis of the compound of Example 18, relative to that of Cephaloridine, taking the absolute rate of Cephaloridine as 100.
(§4) The β-lactamases employed in the test were directly isolated from Enterobacter cloacae P99, E. coli TEM and Citrobacter freundii, and the antibiotics for comparison were Cephaloridine, Cephradine, Cefoperazone and Cefotaxime.
(§5) Cephaloridine, other known antibiotics and the compound of Example 18 were reacted with each of the enzymes isolated from the strains and the OD were determined at 260 nm, λmax of Cephaloridine. The relative hydrolysis of various compounds were calculated relative to the OD of Cephaloridine.

Series [2] has as its target T2, β-lactamase from Citrobacter freundii (Citrobacter freundii, UniProt P05193).
T2 construct: directly isolated from Enterobacter cloacae P99, E. coli TEM and Citrobacter freundii; endogenous in cells
The experiment in a line: Stability against β-lactamase, relative hydrolysis. The following applies: Citrobacter freundii enzyme; 100 μM; relative(percentage), Cephaloridine taken as 100; OD at 260 nm. Type of series: biochemical. As for the experimental part:
as §2, §3, §4, §5

The subject of series [3] is Staphylococcus aureus SG 511. The experiment in a line: Antibacterial activity, MIC by Agar dilution method, standard test strain 4. The class given is cell-based. Conditions: SG511, 10^7 CFU/ml, 37° C., 18 hours. In short, it runs like this:
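Agar dilution MIC: two-fold serial dilutions in Mueller Hinton agar spanning 100~0.002 μg/ml, inoculated at 10^7 CFU/ml. Plates incubated 18 h at 37 °C; MIC is the lowest concentration with no growth.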

Series [4] deals with Enterobacter cloacae 1321E. Kind of series: Antibacterial activity, MIC by Agar dilution method, standard test strain 20. The class given is cell-based. Conditions: Enterobacter cloacae, 1321E, 18 h. In short, it runs like this: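 Two-fold serial compound dilutions in Mueller Hinton agar at 100~0.002 μg/ml, inoculated with 10^7 CFU/ml. Incubated 18 h at 37 °C. MIC is the lowest concentration with no growth.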

The subject of series [5] is Pseudomonas aeruginosa 9027. The experiment in a line: Antibacterial activity, MIC by Agar dilution method, standard test strain 12. Type of series: cell-based. Conditions: 10^7 CFU/ml, 37° C., 18 hours. In short, it runs like this:
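Agar dilution in Mueller Hinton agar with two-fold compound series at 100~0.002 μg/ml. Inoculum 10^7 CFU/ml, incubated 18 h at 37 °C. MIC is the lowest concentration without growth.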

The next series in a line: Acute toxcity test. Conditions: in vivo, male ICR-mouse, after 1 week. The method, then:
Further, in order to illustrate the usefulness of the compounds (I) as a drug, compounds of Examples 12, 18 and 36 were tested for acute toxcity by using 4 weeks-old male ICR-mouse as a test animal.
the compounds were dissolved in physiological saline and phosphate buffered solution (pH 7.0), or if they were […], suspended in carboxymethylcellulose or gum Arabic and then mixed with phosphate buffered solution.
The solution or mixture was administered to the tested animals intravenously or subcutaneously and, after 1 week, the number of surviving animals was calculated.

The subject of series [6] is Streptococcus pyogenes A 308. The experiment in a line: Antibacterial activity, MIC by Agar dilution method, standard test strain 1. The class given is cell-based. The following applies: A308, 10^7 CFU/ml, 37° C., 18 hours. In short, it runs like this:
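Agar dilution in Mueller Hinton agar with two-fold serial dilutions from 100 to 0.002 μg/ml. Inoculum 10^7 CFU/ml, incubated 18 h at 37 °C. MIC taken as lowest concentration with no growth.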

In series [7] the test system is Staphylococcus aureus 503. Kind of series: Antibacterial activity, MIC by Agar dilution method, standard test strain 6. Type of series: cell-based. Conditions: 10^7 CFU/ml, 37° C., 18 hours. Put shortly: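 Two-fold serial dilutions (100~0.002 μg/ml) were set in Mueller Hinton agar and inoculated at 10^7 CFU/ml. Plates were incubated 37° C. for 18 hours. MIC is the lowest concentration with no growth.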

The next series concerns Escherichia coli TEM. The experiment in a line: Antibacterial activity, MIC by Agar dilution method, standard test strain 10. The class given is cell-based. Conditions: Escherichia coli TEM; 10^7 CFU/ml, 37° C., 18 hours; read-out: MIC. Put shortly:
as §1

The test system of series [8] is Streptococcus faecium MD 86. The experiment in a line: Antibacterial activity, MIC by Agar dilution method, standard test strain 3. The following applies: Enterococcus faecium, MD86, 10^7 CFU/ml, 37° C., 18 hours. Type of series: cell-based. In short, it runs like this: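 Two-fold serial dilutions in Mueller Hinton agar (100~0.002 μg/ml), inoculated at 10^7 CFU/ml and incubated 18 hours at 37° C. MIC is the lowest concentration with no growth.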

Series [9] concerns Streptococcus pyogenes A 77. Kind of series: Antibacterial activity, MIC by Agar dilution method, standard test strain 2. The following applies: A77, 10^7 CFU/ml, 37° C., 18 hours. The class given is cell-based. Put shortly:
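Two-fold serial compound dilutions in Mueller Hinton agar at 100~0.002 μg/ml; strains inoculated at 10^7 CFU/ml. After 18 hours at 37° C, the concentration preventing growth was taken as MIC.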

In general, MIC refers to the smallest concentration in the dilution series that meets the test's criterion for growth inhibition. By LD50 is commonly meant the dose at which mortality reaches 50%. Higher therefore signals lower toxicity.

T2 sequence (P05193 21-381): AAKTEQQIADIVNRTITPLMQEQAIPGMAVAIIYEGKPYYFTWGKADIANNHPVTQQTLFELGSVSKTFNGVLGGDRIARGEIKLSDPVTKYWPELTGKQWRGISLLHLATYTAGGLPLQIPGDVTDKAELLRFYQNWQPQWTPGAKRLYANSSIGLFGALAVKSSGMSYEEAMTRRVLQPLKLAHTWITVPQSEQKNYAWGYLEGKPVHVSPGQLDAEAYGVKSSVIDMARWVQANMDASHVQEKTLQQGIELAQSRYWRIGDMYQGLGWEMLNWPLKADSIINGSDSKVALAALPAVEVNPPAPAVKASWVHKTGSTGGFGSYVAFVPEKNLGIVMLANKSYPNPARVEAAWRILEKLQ

As to `CON=C(C(=O)NC1C(=O)N2C(C(=O)[O-])=C(C[n+]3nn(N)c4ccccc43)CSC12)c1csc(N)n1` [Example 18, (6R,7R)-7-[(Z)-2-(2-aminothiazol-4-yl)-2-methoxyiminoacetamido]-3-[(1-aminobenzotriazol-3-ium)methyl]-ceph-3-em-4-carboxylate], the MIC against Staphyloccus aureus 285 amounted to 0.781 mg/L (≈ 1.47 µM); against Escherichia coli O 55, 0.007 mg/L (≈ 0.0132 µM); in [3], 0.391 mg/L (≈ 0.738 µM); in [4], 0.007 mg/L (≈ 0.0132 µM); in [5], 3.12 mg/L (≈ 5.9 µM); in series [6], 0.004 mg/L (≈ 0.00755 µM). Moreover, the MIC in series [7] is 0.195 mg/L (≈ 0.368 µM); in the series with Escherichia coli TEM it was 0.013 mg/L (≈ 0.0245 µM); in series [8] it was over 100 mg/L; in series [9], 0.004 mg/L (≈ 0.00755 µM). Also, the “Relative hydrolysis by β-lactamase” value was found to be 0.0 in series [1] and 0.2 in [2]. Also, the LD50 at 168 h in the series “Acute toxcity test” (sc, Subcutaneous administration) is over 6000 mg/kg; in “Acute toxcity test” (Intravenous administration) it was over 4000 mg/kg.
